Values of other authors in US20240307300A1, “AN IMPROVED PROCESS FOR THE PREPARATION OF AN AQUEOUS OPHTHALMIC SOLUTION OF DIFLUPREDNATE” (SUN PHARMA ADVANCED RESEARCH COMPANY LIMITED, priority 2021, published 2024).

Settings: background statement

CCCC(=O)O[C@]1(C(=O)COC(C)=O)CC[C@H]2[C@@H]3C[C@H](F)C4=CC(=O)C=C[C@]4(C)[C@@]3(F)[C@@H](O)C[C@@]21C [Difluprednate]
solubility in aqueous vehicle: practically insoluble
